Measurements published in patent US4193997A, “Thieno[2,3-c] and [3,2-c]pyridines, process for their preparation and therapeutic applications thereof” (Parcor, priority 1977, dated 1980).

How the values were obtained:
[1] = system: ovalbumin-induced systemic edema; assay: Ovalbumin-induced systemic edema method; format: in vivo; settings: rats, 100 mg/kg oral one hour before and with ovalbumin
Protocol: Rats are administered a simultaneous intraperitoneal injection of 1 ml ovalbumin and 0.5 ml of a 1% aqueous Evans Blue solution. The animals of the treated group are additionally orally administered 100 mg/kg of the test derivative, one hour prior to ovalbumin administration and then simultaneously with said ovalbumin administration. The intensity of the phenomenon thus induced is rated according to a scale from 1 to 5, according to the progress of the inflammatory syndrome. The determinations are effected after 2 hours and after 3 hours. Thus are determined the mean intensity of the edema and the percent decrease of the edema reaction.

[2] = system: carrageenin-induced edema; assay: Localized carrageenin-induced edema method; format: in vivo; settings: rats, 100 mg/kg oral one hour before, with, and 1 and 2.5 hours after carrageenin
Protocol: 0.1 ml of a 1% carrageenin solution is injected at time O in the metatarsal flexor muscles of the right hind limb of rats.
The animals of the treated group are additionally orally administered 100 mg/kg of the test derivative, respectively one hour prior to, and then simultaneously with the phlogogenic agent, and then one hour and 2.5 hours thereafter. The determinations effected with a ROCH micrometer at times 0, 1 hr, 2 hrs, 3 hrs and 5 hrs after carrageenin administration make it possible to determine the percent anti-inflammatory activity, as a function of time.

[3] = system: A.D.P.-induced blood-platelet aggregation; assay: A.D.P.-induced blood-platelet aggregation after oral treatment of rats; format: in vivo, Wistar rats; settings: Rattus norvegicus, 100 mg/kg oral, 3 hrs after treatment, 10 μM A.D.P. solution, read-out: Percent inhibition of blood-platelet aggregation, A.D.P.
Protocol: (§1) Blood is taken from the jugular vein of Wistar rats. From this citrated blood, and after centrifugation, a plasma containing 600,000±20,000 blood-platelets per mm 3 is reconstituted, which plasma is used in all aggregation determinations.
(§2) 0.4 ml plasma is placed in a siliconized tube provided with a magnet bar which is also siliconized. The tube is introduced into an aggregometer connected to an apparatus which records the optical density variations. When light transmission reaches a stable value, 0.5 ml of a solution containing 10 μM A.D.P. (adenosine diphosphate) is introduced into the tube.
Blood-platelet aggregation then induces an increase of light transmission, followed by a decrease subsequent to the disaggregation stage.
The maximal optical density variation thus determined characterizes the extent of the aggregation.
(§3) Different groups of 20 rats each are used. Each group is orally administered a test derivative, at a dosage of 100 mg/kg. The results obtained during both tests are reported in following Table I which indicates the percent inhibition of blood-platelet aggregation obtained with respect to the reference group, 3 hrs after treatment.

[4] = system: mice; assay: Antalgic action, acetic acid method according to Koster, Anderson & de Beer; format: in vivo; settings: 100 mg/kg oral, 30 minutes prior to i.p. acetic acid
Text: (b) Acetic acid method, according to Koster, Anderson & de Beer (Fed. Proced., 18, 1959, 412, 1, 626)
Intraperitoneal injection of a dilute acetic acid solution induces, in mice, characteristic writhing movements which are repeated due to the effect of pain.

[5] = system: mouse; assay: Antalgic action, mechanical stimulation method according to Haffner; format: in vivo; settings: 100 mg/kg oral
Protocol: (a) Mechanical stimulation method according to Haffner (Deutsch. Wish., 1959, 55, 731-733). This method comprises placing a pressure forceps at the base of the tail of a mouse and recording the number of bites self-inflicted by the animal in its endeavour to remove the forceps. The decrease of the number of bites prior and subsequent to oral administration of the test compound at a dosage of 100 mg/kg provides a measure of the antalgic activity of the derivatives of this invention.

[6] = system: Red blood cells; assay: Anti-sludge in vitro, "preventive" treatment (protamine sulfate agglomeration of red blood cells); format: cell-based, rats; settings: for percent agglomerates formed by 5 RBC: controls 6 or 8; for percent agglomerates formed by 4 RBC: controls 9 or 8; for percent agglomerates formed by 3 RBC: controls 13 or 14; for percent agglomerates formed by 2 RBC: controls 17 or 16; for percent free red blood cells (size 1): controls 32 (n°3, 4, 6) or 30 (n°11, 12, 17)
Protocol: (§4) Red blood cells of rats are washed three times and diluted to 1/250 concentration in physiological saline. In each of 5 tubes are placed 0.6 ml of this suspension and 0.2 ml physiological saline. Into each tube is then added, respectively, an amount of 0, 25, 50, 100 and 200 μg of the test derivative contained in 0.2 ml of solution. After incubation for one hour at 37° C., 0.2 ml of a solution containing 125 μg/ml protamine sulfate is added thereto, and the resulting material is further incubated for 0.5 hour at 37° C. The red blood cells of each tube are then examined with a Mallasez cell, and the percent free red blood cells (RBC) and the percent agglomerates formed by 2, 3, 4, 5 . . . RBC are noted.

[7] = system: collagen-induced blood-platelet aggregation; assay: Collagen-induced blood-platelet aggregation after oral treatment of rats; format: in vivo, Wistar rats; settings: Rattus norvegicus, 100 mg/kg oral, 3 hrs after treatment, collagen (bovine tendon extract), read-out: Percent inhibition of blood-platelet aggregation, Collagen
Protocol: as §1, §2
The A.D.P. solution is substituted with a collagen solution (bovine tendon extract).
as §3

[8] = system: Red blood cells; assay: Anti-sludge in vitro, "curative" procedure (protamine sulfate agglomeration of red blood cells); format: cell-based, rats; settings: 25 μg; for percent aggregates, size of agglomerates 4: reference tests 11; for percent aggregates, size of agglomerates 3: reference tests 15 or 16; for percent aggregates, size of agglomerates 2: reference tests 19; for percent aggregates, size of agglomerates 1: reference tests 33 (n°3, 4, 6) or 30 (n°11, 12, 17)
Protocol: as §4
The test was repeated according to a "curative" procedure. The red blood cells were first contacted with the protamine sulfate and, after incubation for 0.5 hour, 0.2 ml containing 25 μg of the test derivative were added thereto, after which the material was further incubated for one hour at 37° C.

Row | SMILES | Percent decrease of the edema reaction After 2 hours [1] | Percent decrease of the edema reaction After 3 hours [1] | Percent anti-inflammatory activity after 1 hour [2] | Percent anti-inflammatory activity after 2 hours [2] | Percent anti-inflammatory activity After 3 hours [2] | inhibition at 100 mg/kg [3] | percent antalgia [4] | mean percent antalgia after 30 min. [5] | mean percent antalgia after 1 hr [5] | mean percent antalgia after 2 hrs [5] | mean percent antalgia after 3 hrs [5] | percent agglomerates formed by 5 RBC ([6]; 25 μg per tube) | percent agglomerates formed by 4 RBC ([6]; 25 μg per tube) | percent agglomerates formed by 3 RBC ([6]; 25 μg per tube) | percent agglomerates formed by 2 RBC ([6]; 25 μg per tube) | percent free red blood cells (size 1) ([6]; 25 μg per tube) | percent agglomerates formed by 5 RBC ([6]; 50 μg per tube) | percent agglomerates formed by 4 RBC ([6]; 50 μg per tube) | percent agglomerates formed by 3 RBC ([6]; 50 μg per tube) | inhibition at 100 mg/kg [7] | further results
1 | CC(=O)N1CC(c2ccccc2)c2ccsc2C1=O (stereo not shown) [Derivative n°17, 4-Phenyl-6-acetyl-7-oxo-4,5,6,7-tetrahydro-thieno[2,3-c]-pyridine] | 46% | 58% | 37% | 49% | 54% | 61.3% | 68% | 70% | 65% | 60% | 55% | 3% | 3% | 13% | 23% | 58% | 1% | 2% | 4% | 91.7% | percent agglomerates formed by 2 RBC ([6]; 50 μg per tube): 28%; percent free red blood cells (size 1) ([6]; 50 μg per tube): 65%; percent agglomerates formed by 5 RBC ([6]; 100 μg per tube): 1%; percent agglomerates formed by 4 RBC ([6]; 100 μg per tube): 1%; percent agglomerates formed by 3 RBC ([6]; 100 μg per tube): 4%; percent agglomerates formed by 2 RBC ([6]; 100 μg per tube): 14%; percent free red blood cells (size 1) ([6]; 100 μg per tube): 80%; percent agglomerates formed by 4 RBC ([6]; 200 μg per tube): 1%; percent agglomerates formed by 3 RBC ([6]; 200 μg per tube): 2%; percent agglomerates formed by 2 RBC ([6]; 200 μg per tube): 9%; percent free red blood cells (size 1) ([6]; 200 μg per tube): 88%; percent aggregates, size of agglomerates 5 ([8]; reference tests 8 or 9): 1%; percent aggregates, size of agglomerates 4 [8]: 1%; percent aggregates, size of agglomerates 3 [8]: 2%; percent aggregates, size of agglomerates 2 [8]: 16%; percent aggregates, size of agglomerates 1 [8]: 80%
2 | O=C1NCCc2ccsc21 [Derivative n°12, 7-Oxo-4,5,6,7-tetrahydro-thieno[2,3-c]pyridine] | 53% | 64% | 42% | 54% | 61% | 62.7% | 77% | 81% | 78% | 73% | 67% | 1% | 2% | 15% | 21% | 61% | 2% | 2% | 12% | 90.6% | percent agglomerates formed by 2 RBC ([6]; 50 μg per tube): 20%; percent free red blood cells (size 1) ([6]; 50 μg per tube): 64%; percent agglomerates formed by 4 RBC ([6]; 100 μg per tube): 2%; percent agglomerates formed by 3 RBC ([6]; 100 μg per tube): 2%; percent agglomerates formed by 2 RBC ([6]; 100 μg per tube): 18%; percent free red blood cells (size 1) ([6]; 100 μg per tube): 78%; percent agglomerates formed by 4 RBC ([6]; 200 μg per tube): 1%; percent agglomerates formed by 3 RBC ([6]; 200 μg per tube): 1%; percent agglomerates formed by 2 RBC ([6]; 200 μg per tube): 9%; percent free red blood cells (size 1) ([6]; 200 μg per tube): 89%; percent aggregates, size of agglomerates 4 [8]: 1%; percent aggregates, size of agglomerates 3 [8]: 3%; percent aggregates, size of agglomerates 2 [8]: 14%; percent aggregates, size of agglomerates 1 [8]: 82%
3 | O=C1c2ccsc2CCN1Cc1ccccc1 [Derivative n°2, 4-Oxo-5-benzyl-4,5,6,7-tetrahydro-thieno[3,2-c]pyridine] | 42% | 50% | 36% | 47% | 53% | 61.5% | 68% | 71% | 65% | 58% | 51% | – | – | – | – | – | – | – | – | 91.2% | –
4 | CC(=O)N1CCc2sccc2C1=O [Derivative n°5, 4-Oxo-5-acetyl-4,5,6,7-tetrahydro-thieno[3,2-c]pyridine] | 38% | 47% | 39% | 51% | 55% | 63.2% | 64% | 66% | 60% | 54% | 48% | – | – | – | – | – | – | – | – | 92.6% | –
5 | O=C1NCCc2sccc21 [Derivative n°7, 4-Oxo-4,5,6,7-tetrahydro-thieno[3,2-c]pyridine] | 51% | 63% | 44% | 55% | 63% | 62.3% | 75% | 78% | 76% | 72% | 64% | – | – | – | – | – | – | – | – | 92.6% | –
6 | COc1cc(COC(=O)C2Cc3sccc3C(=O)N2Cc2cc(OC)c(OC)c(OC)c2)cc(OC)c1OC (stereo not shown) [Derivative n°15, 4-Oxo-6-(3,4,5-trimethoxy-benzyloxycarbonyl)-5-(3,4,5-trimethoxybenzyl)-4,5,6,7-tetrahydro-thieno[3,2-c]pyridine] | 48% | 58% | 40% | 52% | 57% | 61.8% | 69% | 73% | 67% | 63% | 56% | – | – | – | – | – | – | – | – | 91.6% | –
